Experimental data from ChEMBL document CHEMBL1157883, “Synthesis and biological evaluation of novel 2-arylalkylthio-4-amino-6-benzyl pyrimidines as potent HIV-1 non-nucleoside reverse transcriptase inhibitors” (Bioorg Med Chem Lett, 2010).
Activity calls are given as the source filed them. No cut-off for these calls is given here.

Experiments:
[1] = target: Human immunodeficiency virus type 1 reverse transcriptase (Human immunodeficiency virus 1) (UniProt Q72547); experiment: Inhibition of biotin-dUTP labeled HIV-1 reverse transcriptase at 100 uM after 30 mins colorimetric streptavidin alkaline phosphatase reporter system
[2] = target: Human immunodeficiency virus type 1 reverse transcriptase (Human immunodeficiency virus 1, UniProt Q72547); experiment: Inhibition of biotin-dUTP labeled HIV-1 reverse transcriptase after 30 mins colorimetric streptavidin alkaline phosphatase reporter system
[3] = system: Human immunodeficiency virus 1; experiment: Antiviral activity against pluri-resistant HIV1 IRLL98 in cell based assay; type: functional, organism-based; conditions: Human immunodeficiency virus 1, IRLL98
[4] = system: Human immunodeficiency virus 1; experiment: Antiviral activity against HIV1 in cell based assay; type: functional, organism-based
[5] = target: Human immunodeficiency virus type 1 reverse transcriptase (Human immunodeficiency virus 1) (UniProt Q72547); experiment: Inhibition of HIV1 reverse transcriptase

Clc1cc(Cc2ccccc2)nc(SCc2ccc3ccccc3c2)n1
inhibition [1]: inactive

Cc1cccc(CSc2nc(Cl)cc(Cc3ccccc3)n2)c1
IC50 [2]: 90.8 µM

Clc1cc(Cc2ccccc2)nc(SCCCc2ccccc2)n1
inhibition [1]: inactive

Cc1cccc(CSc2nc(N)cc(Cc3ccccc3)n2)c1
EC50 [3]: 0.00022 µM | EC50 [4]: < 0.00014 µM | ID50 [5]: 0.026 µM | IC50 [2]: 18 µM

CC(C)(C)c1ccc(CSc2nc(Cc3ccccc3)cc(=O)[nH]2)cc1
inhibition [1]: inactive

Nc1cc(Cc2ccccc2)nc(SCCc2ccccc2)n1
EC50 [3]: 0.00022 µM | EC50 [4]: < 0.00014 µM | inhibition [1]: inactive

Clc1cc(Cc2ccccc2)nc(SCCc2ccccc2)n1
inhibition [1]: inactive

Nc1cc(Cc2ccccc2)nc(SCc2ccc3ccccc3c2)n1
EC50 [3]: 0.00022 µM | EC50 [4]: < 0.00014 µM | ID50 [5]: 0.026 µM | IC50 [2]: 17.1 µM

COc1cccc(CSc2nc(Cl)cc(Cc3ccccc3)n2)c1
inhibition [1]: inactive

Nc1cc(Cc2ccccc2)nc(SCc2ccccc2)n1
EC50 [3]: 0.00022 µM | EC50 [4]: < 0.00014 µM | ID50 [5]: 0.026 µM | IC50 [2]: > 100 µM

Cc1ccccc1CSc1nc(N)cc(Cc2ccccc2)n1
EC50 [3]: 0.00022 µM | EC50 [4]: < 0.00014 µM | ID50 [5]: 0.026 µM | IC50 [2]: 29.9 µM

CC(Sc1nc(N)cc(Cc2ccccc2)n1)c1ccccc1 (stereo unspecified)
EC50 [3]: 0.00022 µM | EC50 [4]: < 0.00014 µM | ID50 [5]: 0.026 µM | IC50 [2]: 63.9 µM

CC(Sc1nc(Cl)cc(Cc2ccccc2)n1)c1ccccc1 (stereo unspecified)
inhibition [1]: inactive

O=c1cc(Cc2ccccc2)nc(SCc2ccccc2)[nH]1
inhibition [1]: inactive

COc1cccc(CSc2nc(N)cc(Cc3ccccc3)n2)c1
EC50 [3]: 0.00022 µM | EC50 [4]: < 0.00014 µM | ID50 [5]: 0.026 µM | IC50 [2]: > 100 µM

Cc1ccccc1CSc1nc(Cl)cc(Cc2ccccc2)n1
inhibition [1]: inactive

CC(C)(C)c1ccc(CSc2nc(Cl)cc(Cc3ccccc3)n2)cc1
inhibition [1]: inactive

Clc1cc(Cc2ccccc2)nc(SCc2ccccc2)n1
IC50 [2]: > 100 µM

O=c1cc(Cc2ccccc2)nc(SCc2ccc3ccccc3c2)[nH]1
inhibition [1]: inactive

CC(C)(C)c1ccc(CSc2nc(N)cc(Cc3ccccc3)n2)cc1
EC50 [3]: 0.00022 µM | EC50 [4]: < 0.00014 µM | ID50 [5]: 0.026 µM | inhibition [1]: inactive

Nc1cc(Cc2ccccc2)nc(SCCCc2ccccc2)n1
EC50 [3]: 0.00022 µM | EC50 [4]: < 0.00014 µM | inhibition [1]: inactive
